The subject of one experiment is HL-60. Description: Growth inhibition of human HL60 cells up to 10 uM after 72 hrs by MTT assay. Format: functional, cell-based.
The subject of the next experiment is HeLa. Description: Growth inhibition of human HeLa cells up to 10 uM after 72 hrs by MTT assay. It is filed as functional, cell-based.
In another experiment the target is Cathepsin D (Homo sapiens, UniProt P07339). Description: Inhibition of human cathepsin D using GKPILFFRLK(DNP)-D-RNH2) labeled MCA as substrate preincubated for 10 mins followed by substrate addition measured after 1 to 2 hrs by fluorometric method.
Sequence of Cathepsin D (P07339 65-162 limits assumed): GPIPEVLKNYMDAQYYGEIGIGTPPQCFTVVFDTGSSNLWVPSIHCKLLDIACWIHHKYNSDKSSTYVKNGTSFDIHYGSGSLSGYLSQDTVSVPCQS
Sequence of Cathepsin D (P07339 169-412 limits assumed): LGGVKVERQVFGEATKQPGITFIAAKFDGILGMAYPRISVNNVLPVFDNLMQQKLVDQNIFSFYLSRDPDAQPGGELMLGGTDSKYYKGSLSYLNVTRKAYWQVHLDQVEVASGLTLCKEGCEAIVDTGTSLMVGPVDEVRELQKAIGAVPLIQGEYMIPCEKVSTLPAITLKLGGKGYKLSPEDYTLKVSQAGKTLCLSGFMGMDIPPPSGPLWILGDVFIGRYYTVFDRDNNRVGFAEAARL
For the next experiment, the system named is MCF7. In words: Growth inhibition of human MCF7 cells up to 10 uM after 72 hrs by MTT assay. It is filed as functional, cell-based.

Structures are written as SMILES. Calls of active or inactive are those of the source. No cut-off for these calls is given here. Bounds are passed on as bounds.

As for `CC[C@H](C)[C@H](NC(=O)[C@H](OC(=O)[C@@H](O)C(C)C)[C@@H](C)CC)C(=O)NCC(=O)N(C)[C@H](Cc1ccccc1)C(=O)N1CCC[C@H]1C(=O)OC`, the “growth inhibition (GI)” value with HL-60, in the experiment with HeLa and with MCF7 was “inactive” each time. This molecule also returned an IC50 against Cathepsin D of over 10000 nM.
For `CC[C@H](C)[C@H](NC(=O)C[C@H](O)[C@H](CC(C)C)NC(=O)[C@H](OC(=O)[C@@H](O)C(C)C)[C@@H](C)CC)C(=O)N[C@@H](C)C(=O)N(C)[C@H](Cc1ccccc1)C(=O)N1CCC[C@H]1C(=O)OC`, the “growth inhibition (GI)” value in the experiment on HL-60, in the experiment with HeLa and in the experiment with MCF7 was “inactive” in each case. For the same molecule, the IC50 against Cathepsin D is 270 nM.
With `CC[C@H](C)[C@H](NC(=O)C[C@H](O)[C@H](CC(C)C)NC(=O)[C@H](OC(=O)[C@@H](O)C(C)C)C(C)C)C(=O)N[C@@H](C)C(=O)N(C)[C@H](Cc1ccccc1)C(=O)N1CCC[C@H]1C(=O)OC`, the “growth inhibition (GI)” value in the experiment with HL-60, with HeLa and with MCF7 was “inactive” each time. This molecule also came in with an IC50 against Cathepsin D of 380 nM.

Source of the values: ChEMBL document CHEMBL4145636, “Izenamides A and B, Statine-Containing Depsipeptides, and an Analogue from a Marine Cyanobacterium” (J Nat Prod, 2018).
